According to patent US6706663B2, “Herbicidal 3-heterocyclic substituted benzisothiazole and benzisoxazole compounds” (Wyeth, priority 2000, dated 2004):

What was measured:
[1] = test system: SETVI (Setaria viridis); experiment: Postemergence herbicidal evaluation; format: in vivo, (L.) Beau; conditions: postemergence
How it was run: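 Postemergence foliar spray on two-week-old seedlings, dose equivalent to about 0.0040 to 1.000 kg/ha. Ratings use a 0-9 visual scale relative to control at four to five weeks.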

[2] = test system: ECHCG (Echinochloa crus-galli); experiment: Postemergence herbicidal evaluation; format: in vivo, (L.) Beau; conditions: postemergence
How it was run: (§1)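 Visual 0–9 injury scores versus control plants, covering stand, vigour, malformation, size, chlorosis and general appearance, taken four to five weeks post-spray and averaged over replicate tests. Plants were sprayed at roughly two weeks old and held on greenhouse benches.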

[3] = test system: ABUTH (Abutilon theophrasti); experiment: Preemergence herbicidal evaluation; format: in vivo, Medic.; conditions: rated 4-5 weeks after treatment
[4] = test system: ZEAMX (Corn, Field); experiment: Postemergence herbicidal evaluation; format: in vivo, Zea mays, L.; conditions: postemergence
How it was run: as §1

[5] = test system: GLXMAW (Soybean, Williams); experiment: Postemergence herbicidal evaluation; format: in vivo, Glycine max, (L.) Merr. cv Williams; conditions: postemergence
How it was run: as §1

[6] = test system: MOOVA (Monochoria vaginalis); experiment: Flooded paddy, preemergence weed control; format: in vivo, Presl.; conditions: rated 3-4 weeks after treatment, 0-9 rating scale
How it was run: (§2)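 In this preemergence paddy assay, weed seeds or organs are sown at up to 0.5 cm in silt loam and covered by 1.5–3 cm of water for the full test period. After treatment the pots are kept in a greenhouse, and herbicidal effect is rated 0-9 visually against a control.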

[7] = test system: CYPSE (Cyperus serotinus); experiment: Flooded paddy, preemergence weed control; format: in vivo, Rottb.; conditions: rated 3-4 weeks after treatment, 0-9 rating scale
How it was run: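 Seeds or propagules were planted 0.5 cm deep in silt loam and flooded to 1.5–3 cm. Compounds in 50/50 v/v aqueous/acetone were pipetted into the flood water at about 0.0080 to 0.1250 kg/ha. After 3–4 weeks in the greenhouse, effect was rated visually on a 0–9 scale versus untreated control.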

[8] = test system: TRZAWR (Wheat, Winter, cv Riband); experiment: Postemergence herbicidal evaluation; format: in vivo, Triticum aestivum; conditions: postemergence
How it was run: as §1

[9] = test system: TRZAWR (Wheat, Winter, cv Riband); experiment: Preemergence herbicidal evaluation; format: in vivo, Triticum aestivum; conditions: rated 4-5 weeks after treatment
How it was run: (§3)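 Preemergence soil spray, aq. acetone; greenhouse; visual 0–9 score vs control at 4–5 wk.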

[10] = test system: ECHORC (Echinochloa oryzoides); experiment: Flooded paddy, preemergence weed control; format: in vivo, Echinochloa oryzoides (Ard.) Fritsch.; conditions: rated 3-4 weeks after treatment, 0-9 rating scale
How it was run: as §2

[11] = test system: IPOHE (Ipomoea hederacea); experiment: Postemergence herbicidal evaluation; format: in vivo, (L.) Jacq.; conditions: postemergence
How it was run: as §1

[12] = test system: CHEAL (Chenopodium album); experiment: Preemergence herbicidal evaluation; format: in vivo, L.; conditions: rated 4-5 weeks after treatment
How it was run: as §3

[13] = test system: CASOB (Cassia obtusifolia); experiment: Preemergence herbicidal evaluation; format: in vivo, L.; conditions: rated 4-5 weeks after treatment
How it was run: as §3

[14] = test system: AMBEL (Ambrosia artemisifolia); experiment: Preemergence herbicidal evaluation; format: in vivo, L.; conditions: rated 4-5 weeks after treatment
How it was run: as §3

[15] = test system: ORYSAT (Rice, Tebonnet); experiment: Preemergence herbicidal evaluation; format: in vivo, Oryza sativa, (L.) Tebonnet; conditions: rated 4-5 weeks after treatment
[16] = test system: SETVI (Setaria viridis); experiment: Preemergence herbicidal evaluation; format: in vivo, (L.) Beau; conditions: rated 4-5 weeks after treatment
How it was run: as §3

[17] = test system: ECHCG (Echinochloa crus-galli); experiment: Preemergence herbicidal evaluation; format: in vivo, (L.) Beau; conditions: rated 4-5 weeks after treatment
How it was run: as §3

[18] = test system: ORYSAT (Rice, Tebonnet); experiment: Postemergence herbicidal evaluation; format: in vivo, Oryza sativa, (L.) Tebonnet; conditions: postemergence
How it was run: as §1

`CC1COC(c2nsc3ccc(-n4c(=O)cc(C(F)(F)F)n(C)c4=O)cc23)O1` (stereo not drawn) [Compound 57, 1-methyl-3-[3-(4-methyl-1,3-dioxolan-2-yl)-1,2-benzisothiazol-5-yl]-6-(trifluoromethyl)uracil] gave an SETVI herbicidal rating ([1]; rate 0.0320 kg/ha) of 4.0, an SETVI herbicidal rating ([1]; rate 0.0620 kg/ha) of 9.0 and an ECHCG herbicidal rating ([2]; rate 0.0320 kg/ha) of 3.0. For the same compound, the ECHCG herbicidal rating ([2]; rate 0.0620 kg/ha) was 3.0, the “Preemergence herbicidal rating ABUTH” value ([3]; Rate 0.0620 kg/ha) was 9.0 and the “Preemergence herbicidal rating ABUTH” value ([3]; Rate 0.1250 kg/ha) was 9.0. For the same compound, the “Preemergence herbicidal rating ABUTH” value ([3]; Rate 0.2500 kg/ha) was 9.0, the ZEAMX herbicidal rating ([4]; rate 0.0320 kg/ha) was 5.0 and the ZEAMX herbicidal rating ([4]; rate 0.0620 kg/ha) was 5.5. For the same compound, the GLXMAW herbicidal rating ([5]; rate 0.0320 kg/ha) was 7.0, the GLXMAW herbicidal rating ([5]; rate 0.0620 kg/ha) was 8.5 and the “herbicidal rating, MOOVA” value ([6]; rate 0.0320 kg/ha) was 9.0. For the same compound, the “herbicidal rating, MOOVA” value ([6]; rate 0.1250 kg/ha) was 9.0, the “herbicidal rating, CYPSE” value ([7]; rate 0.0320 kg/ha) was 9.0 and the “herbicidal rating, CYPSE” value ([7]; rate 0.1250 kg/ha) was 9.0. For the same compound, the TRZAWR herbicidal rating ([8]; rate 0.0320 kg/ha) was 4.5, the TRZAWR herbicidal rating ([8]; rate 0.0620 kg/ha) was 5.0 and the “Preemergence herbicidal rating TRZAWR” value ([9]; Rate 0.0620 kg/ha) was 8.0. The “Preemergence herbicidal rating TRZAWR” value ([9]; Rate 0.1250 kg/ha) was 8.0, the “Preemergence herbicidal rating TRZAWR” value ([9]; Rate 0.2500 kg/ha) was 9.0 and the “herbicidal rating, ECHORC” value ([10]; rate 0.0080 kg/ha) was 5.0. For the same compound, the “herbicidal rating, ECHORC” value ([10]; rate 0.0320 kg/ha) was 8.0, the “herbicidal rating, ECHORC” value ([10]; rate 0.1250 kg/ha) was 9.0 and the IPOHE herbicidal rating ([11]; rate 0.0320 kg/ha) was 9.0. For the same compound, the IPOHE herbicidal rating ([11]; rate 0.0620 kg/ha) was 9.0, the “Preemergence herbicidal rating CHEAL” value ([12]; Rate 0.0620 kg/ha) was 9.0 and the “Preemergence herbicidal rating CHEAL” value ([12]; Rate 0.1250 kg/ha) was 9.0. The “Preemergence herbicidal rating CHEAL” value ([12]; Rate 0.2500 kg/ha) was 9.0, the “Preemergence herbicidal rating CASOB” value ([13]; Rate 0.0620 kg/ha) was 5.5 and the “Preemergence herbicidal rating CASOB” value ([13]; Rate 0.1250 kg/ha) was 7.5. For the same compound, the “Preemergence herbicidal rating CASOB” value ([13]; Rate 0.2500 kg/ha) was 9.0, the “Preemergence herbicidal rating AMBEL” value ([14]; Rate 0.0620 kg/ha) was 9.0 and the “Preemergence herbicidal rating AMBEL” value ([14]; Rate 0.1250 kg/ha) was 9.0. The “Preemergence herbicidal rating AMBEL” value ([14]; Rate 0.2500 kg/ha) was 9.0, the “Preemergence herbicidal rating ORYSAT” value ([15]; Rate 0.0620 kg/ha) was 8.0 and the “Preemergence herbicidal rating ORYSAT” value ([15]; Rate 0.1250 kg/ha) was 8.0. For the same compound, the “Preemergence herbicidal rating ORYSAT” value ([15]; Rate 0.2500 kg/ha) was 9.0, the “Preemergence herbicidal rating SETVI” value ([16]; Rate 0.0620 kg/ha) was 9.0 and the “Preemergence herbicidal rating SETVI” value ([16]; Rate 0.1250 kg/ha) was 9.0. For the same compound, the “Preemergence herbicidal rating SETVI” value ([16]; Rate 0.2500 kg/ha) was 9.0, the “Preemergence herbicidal rating ECHCG” value ([17]; Rate 0.0620 kg/ha) was 9.0 and the “Preemergence herbicidal rating ECHCG” value ([17]; Rate 0.1250 kg/ha) was 9.0. The “Preemergence herbicidal rating ECHCG” value ([17]; Rate 0.2500 kg/ha) was 9.0, the ORYSAT herbicidal rating ([18]; rate 0.0320 kg/ha) was 4.0 and the ORYSAT herbicidal rating ([18]; rate 0.0620 kg/ha) was 4.5.
